Results published in patent US7994173B2, “2-piperazin-1-yl-3H-imidazo[4,5-b]pyridine derivatives” (Janssen Pharmaceutica N.V., priority 2007, dated 2011).
Where a name gives a salt, the structure may show the parent alone.

Assays:
[1] = system: fundus of the stomach (gastric tone); experiment: Gastric tone measured by an electronic barostat in conscious dogs; assay type: in vivo, dog (female beagle); settings: for Maximum change in volume (Table C-2): I.D.
[2] = system: fundus of the stomach (gastric tone); experiment: as above; assay type: in vivo, dog (female beagle); settings: for Maximum change in volume (mean): relaxation of the fundus, 1 hour after I.D. administration, 0.63 mg/kg
Method: Gastric tone cannot be measured by manometric methods. Therefore an electronic barostat was used. This allows the study of the physiological pattern and regulation of gastric tone in conscious dogs and the influence of test-compounds on this tone. The barostat consists of an air injection system which is connected by a double-lumen 14-French polyvinyl tube to an ultrathin flaccid polyethylene bag (maximal volume: ±700 ml). Variations in gastric tone were measured by recording changes in the volume of air within an intragastric bag, maintained at a constant pressure. The barostat maintains a constant pressure (preselected) within a flaccid air-filled bag introduced into the stomach, changing the volume of air within the bag by an electronic feedback system. Thus, the barostat measures gastric motor activity (contraction or relaxation) as changes in intragastric volume (decrease or increase resp.) at a constant intragastric pressure. The barostat consists of a strain gauge linked by an electronic relay to an air injection-aspiration system. Both the strain gauge and the injection system are connected by means of double-lumen polyvinyl tube to an ultrathin polyethylene bag. A dial in the barostat allows selection of the pressure level to be maintained within the intragastric bag. Female beagle dogs, weighing 7-17 kg, were trained to stand quietly in Pavlov frames. They were implanted with a gastric cannula under general anaesthesia and aseptic precautions. After a median laparotomy, an incision was made through the gastric wall in longitudinal direction between the greater and the lesser curve, 2 cm above the nerves of Latarjet. The cannula was secured to the gastric wall by means of a double purse string suture and brought out via a stub wound at the left quadrant of the hypochondrium. Dogs were allowed a recovery period of two weeks. At the beginning of the experiment, the cannula was opened in order to remove any gastric juice or food remnants. If necessary, the stomach was cleansed with 40 to 50 ml lukewarm water. The ultrathin bag of the barostat was positioned into the fundus of the stomach through the gastric cannula. In order to ensure easy unfolding of the intragastric bag during the experiment, a volume of 150-200 ml was injected into the bag by raising the pressure to maximally 14 mm Hg (about 1.87 kPa) very briefly. This procedure was repeated twice. After a stabilization period of 60 minutes at an intragastric pressure of 6 mmHg (about 0.81 kPa), the test compound was administered subcutaneously, or intraduodenally, at 2 mmHg (0.27 kPa). […] Table C-1 summarizes the mean maximal change in volume (in ml) on relaxation of the fundus, 1 hour after I.D. administration of the test compound (0.63 mg/kg).

Row | melting point [°C] | Structure (SMILES) | Maximum change in volume (mean) [2] [mL] | other results
1 |  | Cn1c(N2CCN(Cc3ccccc3)CC2)nc2cccnc21 [compound 11] | 220 | Maximum change in volume (Table C-2) ([1]; dose 0.0025 mg/kg): 83 mL; Maximum change in volume (Table C-2) ([1]; dose 0.01 mg/kg): 157 mL; Maximum change in volume (Table C-2) ([1]; dose 0.04 mg/kg): 146 mL; Maximum change in volume (Table C-2) ([1]; dose 0.16 mg/kg): 180 mL; Maximum change in volume (Table C-2) ([2]; I.D., dose 0.63 mg/kg): 220 mL
2 |  | CCCc1nc2c(cc1C)nc(N1CCN(Cc3ccccc3)CC1)n2C [compound 1] | 237 | 
3 |  | Cn1c(N2CCN(Cc3ccc4c(c3)OCO4)CC2)nc2cccnc21 [compound 10] | 251 | 
4 | 182 | Cn1c(N2CCN(Cc3cccnc3)CC2)nc2cccnc21 (as salt: HCl) (hydrate or solvate) [Co. No. 3] |  | 
5 | 128 | CN(C)c1ccnc2c1nc(N1CCN(Cc3ccccc3)CC1)n2C [Co. No. 9] |  | 
6 |  | Cn1c(C2CCCN(Cc3ccccc3)CC2)nc2cccnc21 (centres unmarked) [(72) of WO-01/46189, reference compound] |  | Maximum change in volume (Table C-2) ([1]; dose 0.16 mg/kg): 45 mL
7 |  | Cn1c(N2CCNCC2)nc2cccnc21 [compound 14] |  | Maximum change in volume (mean) ([1]; relaxation of the fundus, 1 hour after I.D. administration, administered at 0.16 mg/kg (footnote *)): 154.6 mL
8 |  | Cn1c(N2CCN(Cc3cccnc3)CC2)nc2cccnc21 [compound 3] | 154 | 
9 | 98 | Cn1c(N2CCN(Cc3ccccc3)CC2)nc2cccnc21 [Co. No. 11] |  | 
10 | 114 | Cn1c(N2CCN(Cc3ccc4c(c3)OCO4)CC2)nc2cccnc21 [Co. No. 10] |  | 
11 |  | CN(C)c1ccnc2c1nc(N1CCN(Cc3ccccc3)CC1)n2C [compound 9] | 185 | 

Row | Structure (SMILES) | melting point [°C] | Maximum change in volume (mean) [2] [mL] | other results
12 | Cn1c(N2CCNCC2)nc2cccnc21 | 136 |  | 
